The source of these data is patent publication US20250154548A1, “CONTROL OF ENZYMATIC NUCLEIC ACID SYNTHESIS VIA ELECTROCHEMICAL MEANS” (The Charles Stark Draper Laboratory, Inc., priority 2023, published 2025).

In series [1] the target is T1, TdT-dNTP conjugates (C7-C) (Mus musculus, UniProt P09838, C155A/C188A/C216N/C302P/C378E/C404A/C438A/D179A/D325G/D356E/D411H/D441E/D501E/E183G/E226Q/E418G/E487R/F267Y/F368W/G227E/G413Q/H416D/I229L/K247Q/K250C/K276D/L167K/L260P/L327T/L381Q/M192R/M313Q/M339K/M471L/N304T/Q166K/Q278R/Q287R/Q359K/Q371K/Q390L/R483N/S195A/S223R/S248A/S275E/S282T/S312E/T321Q/T465R/V311I/V320W/V484T).
T1 construct: nucleotide (dNTP) covalently tethered through a cleavable linker; That it is dCTP and sits on Cys102 is my inference from the name C7-C and from K102C
The series can be described thus: Bead-based TdT extension assay. It counts as biochemical. To be noted: for inhibition of TdT extension: various chelator concentrations.
Method: Extension assay was performed for 2 minutes at 37° C.
The ability of chelators to inhibit stepwise addition of nucleotides via TdT-dNTP conjugates was tested using a bead based assay: Magnetic beads (Dynabeads MyOne streptavidin beads (C1)) were functionalized with biotinylated, double-stranded DNA (dsDNA) that contains a 3′ 30-base overhang, which serves as the seed oligo for extension. Beads were prepared in buffer (20 mM potassium phosphate, 100 mM NaCl, pH 6.5) and washed with 3 times with Superblock prior to use. TdT-dNTP conjugates were prepared at 10 μM concentrations in buffer solution (20 mM potassium phosphate buffer, 100 mM NaCl, pH 6.5). Chelators and MnCl2 solutions were prepared at appropriate ratios (in water) so that final reaction concentrations were at 125 nM in MnCl2 and incubated for 10 minutes at room temperature. Once incubation was complete, TdT-dNTP conjugates were added to the chelator/MnCl2 solutions so that TdT-dNTP conjugates were at a final concentration of 5 μM. As controls, solutions with no chelator or with TCEP (for recovery activity) were also prepared.
Once all reagents were prepared, ds-DNA functionalized beads (10 μL volume) were added to low-bind Eppendorf tubes, followed by the TdT-dNTP conjugate/chelator/MnCl2 solution (50 μL total reaction volume). The tubes were incubated at 37° C. for 2 min, then tubes were placed on ice for 1 min. The beads were washed by placing tubes on a magnetic tube rack three times with 1 mL of buffer (20 mM potassium phosphate, 100 mM NaCl, pH 6.5). To elute the ssDNA from the washed beads, the tubes were placed in the magnetic rack, and the supernatant was removed and replaced with 0.1 M NaOH (aq). After thorough mixing with a pipette and re-settling of the beads using the magnetic rack, the supernatant was transferred to a fresh low-bind tube, and 50 μL of 0.1 M HCl (aq) was added to neutralize the solution.
Sequencing sample preparation began with polyadenylation (for sequences expected to end in thymine, cytosine, or guanine) or the addition of a poly(T) tail (for sequences expected to end in adenine) to the 3′ end of each DNA sample using commercial TdT. The samples were then amplified using primers that bind to a conserved 5′ sequence and the complementary 3′ tail while incorporating Illumina sequencing priming sites into the synthesized amplicons. This step was performed using qPCR in order to achieve optimal amplification of all samples regardless of input DNA concentration. A portion of each PCR product was analyzed by gel electrophoresis to confirm the size and relative abundance of the amplicons. The products of all samples were then normalized based on relative abundance and used as template for a second PCR reaction, which incorporated Illumina flow cell adaptors and a variable index into each sample. The products of the final PCR reaction were characterized by gel electrophoresis and all indexed samples were pooled together proportionally based on relative abundance. Size selection and purification of the pooled library was performed by DNA gel extraction and the final library was analyzed by Qubit dsDNA HS assay and Tapestation D1000 screentape to determine the final molar concentration. The library was then diluted, denatured and sequenced following standard Illumina protocols.

The target in the next series is wild-type TdT (Mus musculus, UniProt P09838). The series can be described thus: TdT extension assay with DNA-intercalating dye (SYTO 13). It counts as biochemical. To be noted: metal cofactor MnCl2 pre-incubated with chelator; free nucleotides, ssDNA oligomer. As for the experimental part:
FIG. 14 provides data from an extension assay wherein wild-type TdT is incubated with a single-stranded DNA oligomer in the presence of free nucleotides and a DNA-intercalating dye (SYTO 13). As DNA synthesis occurs, fluorescent signal increases as more interactions of the intercalating dye with the ssDNA leads to higher fluorescent signal.

A short description of series [2]: FLPA fluorescence intensity versus bulk electrolyte pH calibration. It counts as physicochemical. To be noted: from fluorescence intensity vs pH. The source says: FIGS. 3A-C show how voltage-induced pH change can be visualized in real-time with a freely diffusing non-electroactive fluorescent probe. […] A large Pt counter electrode (CE, anode) surrounds a smaller Pt working electrode (WE, cathode). The two electrodes are separated by a 10 μm dielectric SiO2 region. The WE (410 μm×510 μm) contains a microarray of 300-nm diameter wells that cannot be optically resolved but appear as a smaller square region (˜250 μm×325 μm), made brighter by optical interference. The microarray is used as the region of interest (ROI) for all subsequent analysis. Images were acquired with an Excelitas X-Cite Xylis XT720S (360-720 nm LED) source, 1s exposure time, and GFP (525/50 nm) filter set.
Data points represent the average of three technical replicates, and error bars represent one standard deviation. The intensity follows a sigmoidal relationship as the fraction of deprotonated, fluorescent FLPA (inset) increases with pH (pKa˜6.5). Thus, FLPA is sensitive to an acid-OFF/neutral-ON pH switch over pH 5 to 8. The visualization strategy is amenable to other non-electroactive probes with different pKa values.

Setting [3] is: 5 μM C7-C, 0.250 mM Mn2+, 2 minutes at 37° C.

For orientation: pKa means the pH at which an ionisable group is half protonated. A high value points to a weaker acid or stronger base.

T1 sequence (P09838 149-510 with the stated changes): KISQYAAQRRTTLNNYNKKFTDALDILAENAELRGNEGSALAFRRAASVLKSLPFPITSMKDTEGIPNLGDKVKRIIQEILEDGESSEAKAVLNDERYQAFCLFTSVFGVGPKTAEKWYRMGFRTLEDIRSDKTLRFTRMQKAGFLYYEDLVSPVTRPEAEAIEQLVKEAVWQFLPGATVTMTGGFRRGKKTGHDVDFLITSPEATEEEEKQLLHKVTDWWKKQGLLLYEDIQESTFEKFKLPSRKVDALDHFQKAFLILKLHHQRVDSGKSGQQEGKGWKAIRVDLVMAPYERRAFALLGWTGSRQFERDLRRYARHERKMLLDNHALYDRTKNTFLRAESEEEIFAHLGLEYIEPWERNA
wild-type TdT, sequence (P09838 149-510): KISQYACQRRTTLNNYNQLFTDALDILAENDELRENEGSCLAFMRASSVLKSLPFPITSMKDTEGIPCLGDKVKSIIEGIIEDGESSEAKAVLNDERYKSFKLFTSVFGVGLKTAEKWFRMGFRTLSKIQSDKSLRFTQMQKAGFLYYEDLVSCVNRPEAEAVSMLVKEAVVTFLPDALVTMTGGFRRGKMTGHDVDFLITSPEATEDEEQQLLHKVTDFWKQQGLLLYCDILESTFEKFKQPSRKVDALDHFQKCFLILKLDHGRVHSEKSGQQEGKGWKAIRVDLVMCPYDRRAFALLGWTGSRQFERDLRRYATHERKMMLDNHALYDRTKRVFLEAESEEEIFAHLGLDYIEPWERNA

As for `O=C(O)CN(CCN(CC(=O)O)CC(=O)O)CC(=O)O` [EDTA, Ethylenediaminetetraacetic Acid, reference compound], the “fraction of extended sequences” value in series [1] (various chelator:metal ratios, 5 μM C7-C, 0.250 mM Mn2+, 2 minutes at 37° C.) is “markedly decreased”. In addition, the “assayed ssDNA growth (fluorescent signal)” value (shortened to “assayed ssDNA growth”) on wild-type TdT is listed as “little-to-no-assayed ssDNA growth”. `O=C(O)CN(CC(=O)O)C(=O)OCCSSCCOC(=O)N(CC(=O)O)CC(=O)O` [tetraacid 2, 3,14-bis(carboxymethyl)-4,13-dioxo-5,12-dioxa-8,9-dithia-3,14-diazahexadecanedioic acid]: in series [1] (setting [3]), the “inhibition of TdT extension” value is “inhibition dependence on feed ratio of metal to inhibitor and choice of chelator”. On wild-type TdT, the “assayed ssDNA growth” value is “no assayed ssDNA growth is observed”.

As to `NCCOCCOCCOCCOCCOCCOCCNC(=S)Nc1ccc2c(c1)C(=O)OC21c2ccc(O)cc2Oc2cc(O)ccc21` [FLPA, fluorescein-PEG6-amine], the pKa in series [2] is reported as approximately 6.5. With `O=C(NCCc1ccc(O)c(O)c1)OCCSSCCOC(=O)NCCc1ccc(O)c(O)c1` [catechol 1, disulfanediylbis(ethane-2,1-diyl) bis((3,4-dihydroxyphenethyl)carbamate)], the “TdT activity with chelator pre-incubated with reducing agent TCEP” value in series [1] (TCEP reducing agent added, chelator cleaved) was “TdT activity is recovered”. Further, the “inhibition of TdT extension” value in series [1] (setting [3]) is “inhibition dependence on feed ratio of metal to inhibitor and choice of chelator”. Besides, the “assayed ssDNA growth” value at wild-type TdT was “no assayed ssDNA growth is observed”. Consider `c1ccc(SSc2ccccn2)nc1` [DTP, 2,2′-dithiopyridine, reference compound], for which the “inhibition of TdT extension” value in series [1] (setting [3]) was “inhibition dependence on feed ratio of metal to inhibitor”.
